Measurements reported in US20240383950A1, “RECOMBINANT GLYCAN BINDING PROTEINS AND ITS USE” (UNICHEM LABORATORIES LIMITED, priority 2021, published 2024).

Assay: MTS-PMS cytotoxicity bioassay, MDA-MB 231
Conditions: human, MDA-MB 231 breast cancer cells
Description: 5000 cells/well were used for testing.
The drug Doxorubicin was used as system suitability (SST) reference.

## COc1cccc2c1C(=O)c1c(O)c3c(c(O)c1C2=O)C[C@@](O)(C(=O)CO)C[C@@H]3O[C@H]1C[C@H](N)[C@H](O)[C@H](C)O1 [Doxorubicin]
  cytotoxicity at 100 μm: 45%
